Experimental data from ChEMBL document CHEMBL1649567, “Characterization of the plasmid-borne quinolone resistance gene qnrB19 in Salmonella enterica serovar Typhimurium” (2009).
Values after ≈ are worked out from the molar mass of the structure shown.

What was measured:
[1] = system: Salmonella typhimurium; test: Antimicrobial activity against Salmonella enterica serovar Typhimurium STYM61/9 expressing qnrB19 gene variant carried by IncL/M-like plasmid by Etest; assay type: functional, Salmonella enterica subsp. enterica serovar Typhimurium
[2] = system: Salmonella typhimurium; test: Antimicrobial activity against Salmonella enterica serovar Typhimurium transconjugant p61/9T expressing qnrB19 gene variant carried by IncL/M-like plasmid by Etest; assay type: functional, Salmonella enterica subsp. enterica serovar Typhimurium
[3] = system: Escherichia coli; test: Antimicrobial activity against Escherichia coli CSH26RifR receiving qnrB19 gene variant carried by IncL/M-like plasmid from Salmonella enterica serovar Typhimurium STYM61/9 by Etest; assay type: functional

Compound | MIC [1] [mg/L] | MIC [2] [mg/L] | MIC [3] [mg/L]
O=C(O)c1cn(C2CC2)c2cc(N3CCNCC3)c(F)cc2c1=O [CIPROFLOXACIN] | 0.38 (≈ 1.15 µM) | 0.19 (≈ 0.573 µM) | 
COc1c(N2C[C@@H]3CCCN[C@@H]3C2)c(F)cc2c(=O)c(C(=O)O)cn(C3CC3)c12 [MOXIFLOXACIN] | 0.5 (≈ 1.25 µM) | 0.5 (≈ 1.25 µM) | 0.047 (≈ 0.117 µM)
CCn1cc(C(=O)O)c(=O)c2ccc(C)nc21 [NALIDIXIC ACID] | 12 (≈ 51.7 µM) | 16 (≈ 68.9 µM) | 4 (≈ 17.2 µM)
CCn1cc(C(=O)O)c(=O)c2cc(F)c(N3CCNCC3)cc21 [NORFLOXACIN] | 1 (≈ 3.13 µM) | 0.5 (≈ 1.57 µM) | 0.064 (≈ 0.2 µM)
CC1COc2c(N3CCN(C)CC3)c(F)cc3c(=O)c(C(=O)O)cn1c23 (centres undefined) [OFLOXACIN] | 0.75 (≈ 2.08 µM) | 0.75 (≈ 2.08 µM) | 0.064 (≈ 0.177 µM)
